One assay deals with T1, TDO (A172) (Homo sapiens, UniProt P48775).
T1 construct: This assay utilised cancer cells which expressed either TDO (A172) or IDO (SKOV3); endogenous in cells; host or cells: A172 (human glioblastoma)
T1 sequence (P48775 whole entry): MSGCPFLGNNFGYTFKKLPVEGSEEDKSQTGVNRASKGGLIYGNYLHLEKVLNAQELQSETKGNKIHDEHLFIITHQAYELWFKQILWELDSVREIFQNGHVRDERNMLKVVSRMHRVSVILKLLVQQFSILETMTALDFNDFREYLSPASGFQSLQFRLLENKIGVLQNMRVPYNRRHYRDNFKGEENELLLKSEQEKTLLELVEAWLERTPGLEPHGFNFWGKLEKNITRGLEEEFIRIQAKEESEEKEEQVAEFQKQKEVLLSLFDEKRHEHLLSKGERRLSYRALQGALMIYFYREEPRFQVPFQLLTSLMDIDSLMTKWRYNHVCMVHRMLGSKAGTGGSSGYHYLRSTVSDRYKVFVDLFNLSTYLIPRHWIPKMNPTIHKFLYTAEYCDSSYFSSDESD
Description: A172 Kynurenine cell based assay. The settings on record: A172 human glioblastoma cells expressing TDO; kynurenine production, 48 hours. As for the experimental part: (§1) Exemplary compounds of the invention were prepared, and tested to determine their effect as TDO and/or IDO inhibitors. Two different assays were employed: 1. a cell-based assay for detecting the effect of test compounds on kynurenine production in two different cancer cell types. This assay utilised cancer cells which expressed either TDO (A172) or IDO (SKOV3) and as such was used as a means of testing compound activity at these two enzymes in a cell-based context. 2. a TDO and IDO biochemical coupled assay which utilised recombinantly produced and purified TDO and IDO enzymes in combination with the enzyme formamidase. This coupled enzyme system allowed conversion of N-formylkynurenine produced by TDO or IDO activity to kynurenine which was then quantified by fluorescence following addition of Erhlich's Reagent The protocols for these are set out below.
(§2) Cell Based Assay for Detection of Kynurenine Produced by TDO and/or IDO
A172 (human glioblastoma) and SKOV3 (human ovarian adenocarcinoma) cells were seeded in a 96 well plate at 30,000 or 40,000 cells per well respectively in phenol red-free RPMI supplemented with 10% FCS, 2 mM L-glutamine and 500 µM L-tryptophan. IDO expression was induced in the SKOV3 cells by the addition of 500 ng/ml IFN-γ. Cells were incubated at 37° C. with or without the addition of test compound. After 48 hours, the cells were removed by centrifugation and Erhlich's reagent was added to the supernatant. The Erhlich's reagent was incubated for 5 minutes before the absorbance was read at 490 nm.
T2 sequence (P14902 whole entry): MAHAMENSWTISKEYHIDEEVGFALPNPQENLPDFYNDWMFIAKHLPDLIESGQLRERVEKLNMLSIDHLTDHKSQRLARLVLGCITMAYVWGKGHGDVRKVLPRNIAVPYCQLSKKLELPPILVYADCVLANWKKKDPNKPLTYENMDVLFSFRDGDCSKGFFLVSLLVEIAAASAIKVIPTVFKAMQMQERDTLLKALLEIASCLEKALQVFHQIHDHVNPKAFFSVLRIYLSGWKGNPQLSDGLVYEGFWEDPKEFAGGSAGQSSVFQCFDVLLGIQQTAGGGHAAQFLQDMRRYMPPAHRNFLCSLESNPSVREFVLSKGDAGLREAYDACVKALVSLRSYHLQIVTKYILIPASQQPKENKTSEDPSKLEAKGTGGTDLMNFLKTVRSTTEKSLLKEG
As for `Nc1oncc1-c1ccc(Cl)cc1` [Compound 2], the “A172 Kynurenine cell based assay pIC50” value is “+++ (+++ = pIC50 ≥ 5.50)”.

For `Cc1ccc(-c2cnoc2N)cc1` [Compound 3], the “A172 Kynurenine cell based assay pIC50” value is “+++ (+++ = pIC50 ≥ 5.50)”.

`COc1ccc(-c2cnoc2N)cc1` [Compound 4]: the “A172 Kynurenine cell based assay pIC50” value was “++ (++ = pIC50 4.50-5.49)”.

Regarding `Cc1noc(N)c1-c1ccc(F)cc1` [Compound 6], the “A172 Kynurenine cell based assay pIC50” value is given as “++ (++ = pIC50 4.50-5.49)”.

For the compound `CC(C)(C)C(=O)Nc1oncc1-c1ccc(F)cc1` [Compound 8], the “A172 Kynurenine cell based assay pIC50” value is recorded as “+/− (+/− = pIC50 < 4.00)”.

On to `Cc1noc(N)c1-c1ccc(Cl)cc1` [Compound 9], for which the “A172 Kynurenine cell based assay pIC50” value was “++ (++ = pIC50 4.50-5.49)”.

In the case of `Cc1noc(N)c1-c1ccccc1` [Compound 10], the “A172 Kynurenine cell based assay pIC50” value was “++ (++ = pIC50 4.50-5.49)”.

Take `Nc1oncc1-c1ccccn1` [Compound 11]: the “A172 Kynurenine cell based assay pIC50” value is “++ (++ = pIC50 4.50-5.49)”.

In the case of `Nc1oncc1-c1ccc(F)c(F)c1` [Compound 12], the “A172 Kynurenine cell based assay pIC50” value was “+++ (+++ = pIC50 ≥ 5.50)”.

For `Nc1oncc1-c1ccc(F)cc1F` [Compound 14], the “A172 Kynurenine cell based assay pIC50” value is “++ (++ = pIC50 4.50-5.49)”.

For the compound `Nc1oncc1-c1ccccc1Cl` [Compound 15], the “A172 Kynurenine cell based assay pIC50” value was “+ (+ = pIC50 4.00-4.49)”.

As to `Nc1oncc1-c1cccnc1` [Compound 16], the “A172 Kynurenine cell based assay pIC50” value is given as “++ (++ = pIC50 4.50-5.49)”.

With `O=C(Nc1oncc1-c1ccccc1)c1ccccc1` [Compound 18], the “A172 Kynurenine cell based assay pIC50” value is recorded as “++ (++ = pIC50 4.50-5.49)”.

In the case of `O=C(Cc1ccccc1)Nc1oncc1-c1ccccc1` [Compound 19], the “A172 Kynurenine cell based assay pIC50” value is “+ (+ = pIC50 4.00-4.49)”.

For `Nc1oncc1-c1ccccc1F` [Compound 20], the “A172 Kynurenine cell based assay pIC50” value is reported as “++ (++ = pIC50 4.50-5.49)”.

As to `CNc1oncc1-c1ccccc1` [Compound 21], the “A172 Kynurenine cell based assay pIC50” value is reported as “++ (++ = pIC50 4.50-5.49)”.

Regarding `Oc1oncc1-c1ccccc1` [Compound 23], the “A172 Kynurenine cell based assay pIC50” value is reported as “++ (++ = pIC50 4.50-5.49)”.

On to `O=C(CC1CCCCC1)Nc1oncc1-c1ccccc1` [Compound 24], for which the “A172 Kynurenine cell based assay pIC50” value is listed as “++ (++ = pIC50 4.50-5.49)”.

Regarding `COCC(=O)Nc1oncc1-c1ccccc1` [Compound 25], the “A172 Kynurenine cell based assay pIC50” value was “+++ (+++ = pIC50 ≥ 5.50)”.

As to `O=C(Nc1oncc1-c1ccccc1)C1CC1` [Compound 27], the “A172 Kynurenine cell based assay pIC50” value was “++ (++ = pIC50 4.50-5.49)”.

The next assay addresses T2, IDO (SKOV3) (Homo sapiens, UniProt P14902).
T2 construct: IDO expression was induced in the SKOV3 cells by the addition of 500 ng/ml IFN-γ; endogenous in cells; host or cells: SKOV3 (human ovarian adenocarcinoma), IFN-γ induced
Description: SKOV3 Kynurenine cell based assay. The settings on record: SKOV3 human ovarian adenocarcinoma cells, IDO induced by IFN-γ; kynurenine production, 48 hours. As for the experimental part:
as §1, §2
A172 (human glioblastoma) and SKOV3 (human ovarian adenocarcinoma) cells were seeded in a 96 well plate at 30,000 or 40,000 cells per well respectively in phenol red-free RPMI supplemented with 10% FCS, 2 mM L-glutamine and 500 µM L-tryptophan. IDO expression was induced in the SKOV3 cells by the addition of 500 ng/ml IFN-γ. Cells were incubated at 37° C. with or without the addition of test compound. After 48 hours, the cells were removed by centrifugation and Erhlich's reagent was added to the supernatant.
For `Nc1oncc1-c1ccc(Cl)cc1` [Compound 2], the “SKOV3 Kynurenine cell based assay pIC50” value is given as “++ (++ = pIC50 4.50-5.49)”.

For the compound `Cc1ccc(-c2cnoc2N)cc1` [Compound 3], the “SKOV3 Kynurenine cell based assay pIC50” value is recorded as “++ (++ = pIC50 4.50-5.49)”.

Take `COc1ccc(-c2cnoc2N)cc1` [Compound 4]: the “SKOV3 Kynurenine cell based assay pIC50” value was “++ (++ = pIC50 4.50-5.49)”.

As for `Cc1noc(N)c1-c1ccc(F)cc1` [Compound 6], the “SKOV3 Kynurenine cell based assay pIC50” value is “+/− (+/− = pIC50 < 4.00)”.

Turning to `CC(C)(C)C(=O)Nc1oncc1-c1ccc(F)cc1` [Compound 8], the “SKOV3 Kynurenine cell based assay pIC50” value was “++ (++ = pIC50 4.50-5.49)”.

For `Cc1noc(N)c1-c1ccc(Cl)cc1` [Compound 9], the “SKOV3 Kynurenine cell based assay pIC50” value is “+ (+ = pIC50 4.00-4.49)”.

For the compound `Cc1noc(N)c1-c1ccccc1` [Compound 10], the “SKOV3 Kynurenine cell based assay pIC50” value is reported as “+ (+ = pIC50 4.00-4.49)”.

As to `Nc1oncc1-c1ccccn1` [Compound 11], the “SKOV3 Kynurenine cell based assay pIC50” value is given as “+ (+ = pIC50 4.00-4.49)”.

For the compound `Nc1oncc1-c1ccc(F)c(F)c1` [Compound 12], the “SKOV3 Kynurenine cell based assay pIC50” value was “++ (++ = pIC50 4.50-5.49)”.

For `Nc1oncc1-c1ccc(F)cc1F` [Compound 14], the “SKOV3 Kynurenine cell based assay pIC50” value is given as “++ (++ = pIC50 4.50-5.49)”.

As to `Nc1oncc1-c1ccccc1Cl` [Compound 15], the “SKOV3 Kynurenine cell based assay pIC50” value was “++ (++ = pIC50 4.50-5.49)”.

`Nc1oncc1-c1cccnc1` [Compound 16]: the “SKOV3 Kynurenine cell based assay pIC50” value is given as “++ (++ = pIC50 4.50-5.49)”.

As for `O=C(Nc1oncc1-c1ccccc1)c1ccccc1` [Compound 18], the “SKOV3 Kynurenine cell based assay pIC50” value is “++ (++ = pIC50 4.50-5.49)”.

`O=C(Cc1ccccc1)Nc1oncc1-c1ccccc1` [Compound 19]: the “SKOV3 Kynurenine cell based assay pIC50” value is listed as “++ (++ = pIC50 4.50-5.49)”.

With `Nc1oncc1-c1ccccc1F` [Compound 20], the “SKOV3 Kynurenine cell based assay pIC50” value is reported as “++ (++ = pIC50 4.50-5.49)”.

Regarding `CNc1oncc1-c1ccccc1` [Compound 21], the “SKOV3 Kynurenine cell based assay pIC50” value was “++ (++ = pIC50 4.50-5.49)”.

With `Oc1oncc1-c1ccccc1` [Compound 23], the “SKOV3 Kynurenine cell based assay pIC50” value is listed as “+/− (+/− = pIC50 < 4.00)”.

Take `O=C(CC1CCCCC1)Nc1oncc1-c1ccccc1` [Compound 24]: the “SKOV3 Kynurenine cell based assay pIC50” value was “++ (++ = pIC50 4.50-5.49)”.

On to `COCC(=O)Nc1oncc1-c1ccccc1` [Compound 25], for which the “SKOV3 Kynurenine cell based assay pIC50” value was “++ (++ = pIC50 4.50-5.49)”.

With `O=C(Nc1oncc1-c1ccccc1)C1CC1` [Compound 27], the “SKOV3 Kynurenine cell based assay pIC50” value is “++ (++ = pIC50 4.50-5.49)”.

The record behind these values is patent US10047074B2, “Pharmaceutical compound” (IOmet Pharma Ltd., priority 2014, dated 2018).
